Experimental data: publication PMC4865845, “A human genome-wide loss-of-function screen identifies effective chikungunya antiviral drugs” (Nature Communications, 2016)

Each substance was assayed on CHIKV.
Format: cell-based, chikungunya virus
Work on “Hs_GUCY1B3_1 (sense AAGGGTCAAATGATCTACTTA; chemistry not given here) [reference compound]” yielded a Score_si2 of -0.88. In the case of “Hs_GUCY1B3_2 (sense ACCTAACATGGTGATCTGCAA; chemistry not given here) [reference compound]”, the Score_si1 is reported as -1.2. “Hs_GUCY1B3_3 (sense CAAGACTTTCTTCTAGATATA; chemistry not given here) [reference compound]” gave a Score_si3 of -0.83. “Hs_HMGA1L4_1 (sense AAGCCTCAGCTCAAACTCAAA; chemistry not given here)” was tested, and the Score_si1 was 2.38. For “Hs_HMGA1L4_2 (sense CTGGCTGGATGAAGACAGTAA; chemistry not given here)”, the Score_si4 was 0.45. Work on “Hs_HMMR_2 (sense AAGTTAAGTCTTCGGAATCAA; chemistry not given here)” yielded a Score_si1 of 2.42. “Hs_HSPE1_4 (sense CTGAAATAAGTCACTATTGAA; chemistry not given here)” showed a Score_si4 of 1.81. “Hs_HSPE1_6 (sense GAGGGAGTAATGGCAGGACAA; chemistry not given here)” was tested, and the Score_si1 was 2.37. For “Hs_HTATIP_8 (sense CACCACATTGCCTGTCCTCTA; chemistry not given here)”, the Score_si1 was 2.67. For “Hs_INTS8_2 (sense CTGGGAATTAAAGACAATTTA; chemistry not given here)”, the Score_si2 was 2.65. For “Hs_IQGAP1_1 (sense CTGGGAGATAATGCCCACTTA; chemistry not given here)”, the Score_si2 was 1.04. With “Hs_IQGAP1_3 (sense AAGGCATATCAAGATCGGTTA; chemistry not given here)” the Score_si4 was 0.77. In the case of “Hs_IQGAP1_4 (sense TGCCCACTTAAGCATCATTAA; chemistry not given here)”, the Score_si3 is reported as 0.98. In the case of “Hs_IRAK1_5 (sense CCGGGCAATTCAGTTTCTACA; chemistry not given here)”, the Score_si4 is reported as 1.36. With “Hs_IRAK1_6 (sense TCCCATCGCCATGCAGATCTA; chemistry not given here)” the Score_si3 was 1.57. “Hs_IRAK1_10 (sense AAGCAAGTCAGGTTTCATGTA; chemistry not given here)” was tested, and the Score_si2 was 1.62. Work on “Hs_ITGB4BP_1 (sense CTGGATCTATCATTACTGCAA; chemistry not given here)” yielded a Score_si3 of 1.14. “Hs_ITGB4BP_2 (sense AAGCTACTGTGTCTTCAGCAA; chemistry not given here)” showed a Score_si4 of 1.08. Work on “Hs_ITGB4BP_3 (sense CAGGGAGACAGAAGAAATTCT; chemistry not given here)” yielded a Score_si1 of 1.54. “Hs_KAZALD1_1 (sense CCGGAGGAGCTGCTTTCTGAA; chemistry not given here)” gave a Score_si2 of 1.12. In the case of “Hs_KAZALD1_2 (sense ACAGGGCTAGGCACCAATAAA; chemistry not given here)”, the Score_si1 is reported as 1.74. With “Hs_KCTD10_1 (sense AAGGCTTTGTTTAGGGATCAA; chemistry not given here)” the Score_si1 was 2.04. With “Hs_KIAA0252_2 (sense AAGGAATTATCTATTAAAGAA; chemistry not given here)” the Score_si1 was 2.74. “Hs_KIAA0674_1 (sense CCGGAAACAACTGGAACTCAA; chemistry not given here)” gave a Score_si1 of 1.96. Substance “Hs_KIAA0674_2 (sense CCCGGCAACATAACACTGAAA; chemistry not given here)” has a Score_si2 of 1.52. In the case of “Hs_KIAA0947_2 (sense CTGGCAGTTTATTGCTCTTAA; chemistry not given here)”, the Score_si1 is reported as 2.71. “Hs_KIAA1012_2 (sense CAGGGTTGCTATTTACTTAAA; chemistry not given here)” showed a Score_si1 of 2.22. For “Hs_KRTCAP2_5 (sense CTCGCTCACTGCCTTCAATAA; chemistry not given here)”, the Score_si3 was 1.15. Substance “Hs_KRTCAP2_6 (sense CTGACCCTGAATGTTCAATAA; chemistry not given here)” has a Score_si1 of 1.71. “Hs_KRTHA2_1 (sense CAGATGGAGGAGCTTAACCAA; chemistry not given here)” showed a Score_si1 of 1.15. In the case of “Hs_KRTHA2_2 (sense ATGGTTGTGAACATTGATAAT; chemistry not given here)”, the Score_si2 is reported as 1.02. With “Hs_LBX1_1 (sense CACCAGATCTATGAATTGGAA; chemistry not given here)” the Score_si3 was 1.41. With “Hs_LBX1_2 (sense CAAGGCCGAGATGACTTCCAA; chemistry not given here)” the Score_si1 was 2. Substance “Hs_LIP8_1 (sense CTGGACTTTGCTAAAGCAGAA; chemistry not given here)” has a Score_si4 of 0.62. Work on “Hs_LIP8_2 (sense AAGCATATCTTTGAGATGGAA; chemistry not given here)” yielded a Score_si1 of 2.14. “Hs_LOC283377_3 (sense CAGGCCTTTCTCAGACTGTAT; chemistry not given here)” showed a Score_si1 of 2.72. Substance “Hs_LOC283377_7 (sense AAAGCTAGGCATACAGCCAAA; chemistry not given here)” has a Score_si3 of 0.76. In the case of “Hs_LOC407835_4 (sense CAGGGAGATCAGCATCTGCAT; chemistry not given here)”, the Score_si2 is reported as 0.79. “Hs_LOC407835_6 (sense CTGCTGGACTATATTGTGAAA; chemistry not given here)” gave a Score_si3 of 0.74. “Hs_LOH12CR1_1 (sense CCCGATGTCATCAAGTTGCAA; chemistry not given here)” gave a Score_si1 of 2.42. For “Hs_LOXL2_1 (sense CCGGAGTTGCCTGCTCAGAAA; chemistry not given here)”, the Score_si2 was 1.33. For “Hs_LOXL2_3 (sense CAGGCAATGAGAAGTCCATTA; chemistry not given here)”, the Score_si1 was 2.38. With “Hs_LOXL2_4 (sense CTCGAGATTCCGGAAAGCATA; chemistry not given here)” the Score_si4 was 0.97. With “Hs_LRIG2_1 (AGGGATGTCATTGTAAATATA; chemistry not given here) [reference compound]” the Score_si1 was -2.53. In the case of “Hs_LRP6_2 (CTGGATTGTTATCCGACTGAA; chemistry not given here)”, the Score_si2 is reported as 1.63. Work on “Hs_LRP6_7 (CTGGATGGTTCTGACCGTGTA; chemistry not given here)” yielded a Score_si1 of 1.93. Work on “Hs_LTBP3_1 (CCGGGACAGATCTCAGCAGAA; chemistry not given here)” yielded a Score_si2 of 1.9. For “Hs_LTBP3_2 (CCGCTACTGCGTGGATGTGAA; chemistry not given here)”, the Score_si4 was 1.32. For “Hs_MAP2K2_9 (TTCCAGGAGTTTGTCAATAAA; chemistry not given here)”, the Score_si4 was 0.51. “Hs_MAP3K14_1 (CAGGACTCACGTAGCATTAAA; chemistry not given here)” was tested, and the Score_si2 was 1.59. Work on “Hs_MAP3K14_5 (CACATGCATGTGACTCCTCAA; chemistry not given here)” yielded a Score_si4 of 0.74. For “Hs_MAP3K14_6 (TACCTAGTGCATGCTCTGCAA; chemistry not given here)”, the Score_si3 was 1.59. “Hs_MAZ_2 (CCGCGACGTCTACCACCTGAA; chemistry not given here)” was tested, and the Score_si1 was 2.43. Work on “Hs_MDS032_1 (TCGAATCATGCCTAAACTCAA; chemistry not given here)” yielded a Score_si4 of 1.39. Substance “Hs_MGC2803_1 (TGCGATGTACATAACTATTTA; chemistry not given here)” has a Score_si4 of -0.65. In the case of “Hs_MGC2803_2 (CGGGAACAAACTAGCCCTCAA; chemistry not given here)”, the Score_si1 is reported as 2.43.
